Biological target: T1, bovine serum albumin (BSA) (Bos taurus, UniProt P02769)
T1 construct: gene ALB
Experiment: BSA intrinsic fluorescence quenching titration, ex […] nm
Format: binding
Conditions: double-log; PBS pH 7.2, 25 °C, BSA 11 µM, ligand 0-20 µM

T1 sequence (P02769 25-607): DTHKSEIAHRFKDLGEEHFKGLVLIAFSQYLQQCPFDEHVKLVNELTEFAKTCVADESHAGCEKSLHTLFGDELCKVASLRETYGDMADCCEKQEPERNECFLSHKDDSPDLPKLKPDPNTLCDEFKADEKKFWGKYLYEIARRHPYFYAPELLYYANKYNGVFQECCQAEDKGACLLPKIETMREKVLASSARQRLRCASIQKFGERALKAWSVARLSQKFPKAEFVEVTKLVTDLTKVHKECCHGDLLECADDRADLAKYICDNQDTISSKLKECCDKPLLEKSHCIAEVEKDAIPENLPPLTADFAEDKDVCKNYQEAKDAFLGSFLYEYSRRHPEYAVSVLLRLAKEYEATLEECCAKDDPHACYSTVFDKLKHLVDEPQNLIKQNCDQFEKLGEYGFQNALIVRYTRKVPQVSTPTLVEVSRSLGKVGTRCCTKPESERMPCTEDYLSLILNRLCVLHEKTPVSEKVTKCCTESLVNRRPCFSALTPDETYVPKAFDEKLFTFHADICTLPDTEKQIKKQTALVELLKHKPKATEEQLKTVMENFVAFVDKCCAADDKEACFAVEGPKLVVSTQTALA

Structure (SMILES)	KA (×10^4 M^-1)
CCCCNCc1cc(C)c(O)c(-c2nc3ccccc3o2)c1 [compound 12, benzazole 12]	0.61 ×10^4 M^−1
CCCCNCc1cc(C)c(O)c(-c2nc3ccccc3s2)c1 [compound 15, benzazole 15]	0.73 ×10^4 M^−1
CCCCCCCCCCCCNCc1cc(C)c(O)c(-c2nc3ccccc3s2)c1 [compound 16, benzazole 16]	0.79 ×10^4 M^−1

Next, values leading:

KA (×10^4 M^-1)	Structure (SMILES)
0.74 ×10^4 M^−1	CCCCCCCCCCCCNCc1cc(C)c(O)c(-c2nc3ccccc3o2)c1 [compound 13, benzazole 13]
0.59 ×10^4 M^−1	CCCCCCCCCCCCCCCCCCNCc1cc(C)c(O)c(-c2nc3ccccc3o2)c1 [compound 14, benzazole 14]
0.69 ×10^4 M^−1	CCCCCCCCCCCCCCCCCCNCc1cc(C)c(O)c(-c2nc3ccccc3s2)c1 [compound 17, benzazole 17]

Source: article PMC8586955, “Interaction Study between ESIPT Fluorescent Lipophile-Based Benzazoles and BSA” (Molecules, 2021)
